Our source for the EC50, IC50 and outcome values is PubChem BioAssay AID179 (DTP/NCI, 2004).

For this assay, the system named is CEM cells HIV-1 protection, formazan growth assay. In words: NCI AIDS Antiviral Assay. The settings on record: for IC50: measured here: growth of uninfected CEM cells. Summed up: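 Protection of CEM cells against HIV-1 was scored from cell growth (soluble formazan) across five concentrations, with parallel uninfected cells. Lack of protection may reflect toxicity.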

SMILES strings stand for the structures. Calls of active or inactive are those of the source.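 Rule for the calls: active = compounds giving half or more protection of infected cells from virus-caused growth loss, again on retest; inactive = the rest.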

`Cc1nc(N(CCO)CCO)nc2c1C(=O)Nc1ccccc1N2`: the EC50 is greater than 200 µM and the IC50 came to 42.7 µM. For `COC(=O)c1ccc2c(c1)CC1(C2)Cc2cc3c(cc2C1=O)CCC3` (configuration not stated), in that order: greater than 200 µM and 20 µM. The corresponding values for `CCCCS(=O)(=O)O` are greater than 200 µM and greater than 200 µM. With `CC12CCC(=O)N1c1cc(Cl)ccc1N2` (configuration not stated), the EC50 is greater than 115 µM and the IC50 is greater than 115 µM. As for `CN(C)CC(/C(Cc1ccccc1)=N\NC(=S)NN)c1ccccc1` (configuration not stated), the EC50 was greater than 35.5 µM and the IC50 was greater than 35.5 µM. On to `CCCCNC(=NCc1ccccc1)NC#N`, for which the EC50 is greater than 407 µM and the IC50 came out at 295 µM. Consider `Cc1cc2c(C)nn(Cc3ccccc3)c2c(C(N)=O)c1C`, for which the result was inactive. For `N#C/C(=C\c1ccc[nH]1)C(=O)c1ccccc1`, the EC50 is greater than 309 µM and the IC50 is greater than 309 µM.

Consider `CCCCCCCCCCCCCCCCOC1OC(CO)C(O)C(O)C1O` (configuration not stated), for which the EC50 was greater than 9.33 µM and the IC50 was greater than 9.33 µM.

For `Clc1ccc2nc3nc(-c4ccccc4)c(-c4ccccc4)nc3nc2c1`, the EC50 is greater than 19.5 µM and the IC50 was greater than 19.5 µM.

Turning to `S=C1C(=Nc2ccccc2)N(c2ccccc2)/C(=N\c2ccccn2)N1c1ccccc1`, the EC50 was greater than 200 µM and the IC50 stood at 6.31 µM. Regarding `COc1ccc(-c2onc(-c3c(C)cc(C)cc3C)c2C2=NCCN2)cc1`, the EC50 is greater than 72.4 µM and the IC50 is greater than 72.4 µM. Consider `CCCCC(=O)Oc1c(Cl)cc(C(=CCC[C@H]2CC[C@@]3(C)[C@@H](CC[C@@H]4[C@@H]3CC[C@]3(C)[C@@H](C(C)CCCC(C)C)CC[C@@H]43)C2)c2cc(Cl)c(OC(=O)CCCC)c(C(=O)O)c2)cc1C(=O)O` (some centres not stated), for which the EC50 is 74.1 µM and the half-inhibitory concentration (IC50) was greater than 100 µM. For `CNCC(=O)c1ccc(O)c(O)c1`, in that order: greater than 200 µM and greater than 200 µM. For `CCc1cccc(C(C)CC)c1NC(=O)CC1C(=O)Nc2ccccc2S1(=O)=O` (configuration not stated), in that order: greater than 12 µM and greater than 12 µM. For `COc1ccc(Nc2nc3c(N)cc(C(F)(F)F)cc3nc2-c2ccccc2)cc1`, in that order: greater than 12.6 µM and greater than 12.6 µM. Regarding `COC(=O)C(Cc1cn(C(C)=O)c2ccccc12)P(=O)(OC)OC` (configuration not stated), the EC50 is greater than 200 µM and the IC50 was greater than 200 µM. In the case of `CCOC(=O)c1sc2c(c1OC(=O)c1ccccc1)c(=O)n(-c1ccccc1)c(=S)n2-c1ccccc1`, the EC50 was greater than 200 µM and the IC50 is 132 µM. Consider `O=C(c1c(O)cc(O)cc1O)C1Cc2ccccc21` (configuration not stated), for which the result was inactive.

`CCSc1c2ccccc2nc2c(OC)ccc(OC)c12`: the result was inactive. For the molecule `Cc1cc(C)n(-c2ccnc3cc(Cl)ccc23)n1`, the EC50 is greater than 501 µM and the IC50 was determined as 214 µM. The corresponding values for `O=c1[nH]c2nc[nH]c2c(=O)n1C1CCCCC1` are greater than 200 µM and greater than 200 µM. The corresponding values for `CN1C(=O)C2(C=CC(O)CC2)c2ccccc21` (configuration not stated) are greater than 200 µM and greater than 200 µM. On to `Cc1cc(=O)n(-c2ccccc2)c(=O)o1`, for which the result was inactive. The same measure, in the same setting: the same measure for `Cc1c(/C=N/N=C/c2[nH]c(C(=O)OC(C)(C)C)c(C)c2C)[nH]c(C(=O)OC(C)(C)C)c1C`: “inactive”. As to `CC1=NN(c2nc(N)nc(-c3sccc3N)n2)C(C)(C)C1`, the EC50 was greater than 200 µM and the half-maximal inhibitory concentration (IC50) was found to be 77.6 µM. For `OC1NC2Nc3ccccc3NC2NC1O` (configuration not stated), in that order: greater than 200 µM and greater than 200 µM. For `Cc1ccc(-c2nc(C)c(C(=O)Nc3ccc(Cl)cc3)s2)cc1`, in that order: greater than 200 µM and greater than 200 µM. For `NC(=O)CC[C@H]1C(=O)N=C(N)N1C(=O)OCc1ccccc1`, in that order: greater than 200 µM and greater than 200 µM. Regarding `S=C1NC2(CCCCC2)C2=C(CCCC2)S1`, the EC50 is greater than 141 µM and the IC50 worked out at 12 µM.

For the molecule `C=CCNC(=S)N/C=C(\C#N)c1nc2ccccc2s1`, the EC50 is greater than 200 µM and the IC50 was greater than 200 µM. For the molecule `CC(=O)Nc1ccccc1`, the EC50 is greater than 1860 µM and the IC50 was greater than 1860 µM.

Regarding `O=C1c2ccccc2C(=O)N1CCCSCC(CO)SCCCN1C(=O)c2ccccc2C1=O` (configuration not stated), the EC50 was greater than 200 µM and the IC50 was greater than 200 µM.

For `O=C(O)Cc1ccc2c(c1)C(=O)c1ccccc1CO2`, the result was inactive. As for `O=C(NC/C=C/Br)Nc1cnc2ccccc2c1`, the EC50 was greater than 200 µM and the half-inhibitory concentration (IC50) turned out to be 151 µM. For `CCCCCCCCOc1ccc(C(=O)c2ccccc2)c(O)c1`, in that order: greater than 200 µM and 95.5 µM. For `CCCCCCC1CC(=O)C1(Cl)Cl` (configuration not stated), the result was inactive. Regarding `Cc1ccc(/C(O)=C/C(=O)C(=O)NN=C(c2ccccc2)c2ccccc2)cc1`, the EC50 was greater than 200 µM and the IC50 is 107 µM. In the case of `Cc1cc2c(=O)cc(-c3ccncc3)oc2c(C(N)=O)c1C`, the EC50 was greater than 151 µM and the IC50 was found to be 70.8 µM. For `CCOC(=O)c1c2ccccc2n2c(=O)n(-c3ccccc3)nnc12`, in that order: greater than 200 µM and 35.5 µM. In the case of `COC1=NS(=O)(=O)C(C)C(C)(C)O1` (configuration not stated), the EC50 was greater than 427 µM and the IC50 was greater than 427 µM. As for `O=[N+]([O-])c1ccc2[nH]c(=S)[nH]c(=S)c2c1`, the EC50 was greater than 200 µM. `O=Cc1ccc(C(F)(F)F)cc1.[C-]#[O+].[C-]#[O+].[C-]#[O+].[Cr]`: the EC50 was greater than 20 µM and the IC50 came out at 3.98 µM. As for `O=P1(c2ccccc2)Nc2ccccc2N1c1ccccc1` (configuration not stated), the EC50 is greater than 200 µM and the IC50 stood at 38 µM.

As to `BrC1=C(Br)C2(SCCS2)[C@H]2C[C@@H]1c1ccccc12`, the EC50 is greater than 200 µM and the IC50 is 8.71 µM. `COc1ccc(NC(=O)CC/C(CC(=O)C(C)(C)C)=N\NC(=O)C(N)=O)cc1`: the EC50 is greater than 93.3 µM and the IC50 was greater than 93.3 µM. Turning to `C#CCOc1cc2c(c3oc(=O)cc(CCC)c13)[C@@H](O)[C@H](C)[C@@H](C)O2`, the EC50 was greater than 200 µM and the IC50 was greater than 200 µM. For `OCC1OC(n2cnc3cncnc32)CC1O` (configuration not stated), the outcome was inactive. Consider `Cc1cn(C2CC(N=[N+]=[N-])C(COP(=O)(OCC(=O)c3ccccc3)OCC(=O)c3ccccc3)O2)c(=O)[nH]c1=O` (configuration not stated), for which the EC50 was 0.00741 µM and the IC50 came to 2 µM. For `CC1=NS(=O)(=O)NC(C)(C)C1`, in that order: greater than 200 µM and greater than 200 µM. The corresponding values for `COc1ccc2c(c1)OC(=O)CC2c1ccc(OC)c(OC)c1` (configuration not stated) are greater than 200 µM and greater than 200 µM. For `O=C(O)c1cccc2cccc(C(=O)O)c12.[Hg]`, the outcome was inactive.

As for `Cc1cc(Cl)c2c(c1)C(=O)/C(=C/c1ccc(Cl)cc1)O2`, the EC50 was greater than 200 µM and the IC50 came to 15.8 µM. The corresponding values for `Nc1ccc(Cl)c(-c2nc3ccccc3[nH]2)c1` are greater than 77.6 µM and greater than 77.6 µM. For `O=C1CCN(CCC(F)(F)C(F)(F)C(F)(F)C(F)(F)C(F)(F)C(F)(F)F)C(=S)N1CCC(F)(F)C(F)(F)C(F)(F)C(F)(F)C(F)(F)C(F)(F)F`, in that order: greater than 16.6 µM and greater than 16.6 µM. Consider `C[C@@H]1CCC(=O)C(C(=O)CC2CC(=O)NC2=O)C1` (some centres not stated), for which the EC50 was greater than 200 µM and the IC50 was greater than 200 µM. Turning to `CC1(C)CSC(=S)N1`, the EC50 was greater than 200 µM and the IC50 was greater than 200 µM. As to `Cn1c(Nc2ccccc2)c(C=Nc2ccccc2)c(=O)n(C)c1=O`, the EC50 was greater than 100 µM and the IC50 is 53.7 µM. Consider `CCCCN(C(=O)NCCC)S(=O)(=O)c1ccc(Cl)cc1`, for which the outcome was inactive. `CC(C)(C)O/C=C1/C(=O)OC2C[C@@H](O[Si](C)(C)C(C)(C)C)CC12` (some centres not stated): the EC50 is greater than 200 µM and the IC50 came to 120 µM. For `CC(C)(Oc1ccc2c(=O)cc(-c3ccccc3)oc2c1)C(=O)N1CCN(c2ccccc2)CC1`, in that order: greater than 200 µM and 20.9 µM. With `COC(c1ccsc1)C(C#N)(C#N)N=Cc1ccsc1` (configuration not stated), the EC50 was greater than 200 µM and the IC50 is 16.2 µM. Take `COc1cccc2c1C(=O)c1c(O)c3c(c(O)c1C2=O)C[C@@](O)(C(=O)CO)C[C@@H]3OC1CC(N2CCOCC2)C(O)C(C)O1` (some centres not stated): the result was inactive. For `O=[N+]([O-])c1c(F)c(F)c2c(c1F)N(CCCCCl)c1ccccc1S2`, the EC50 is greater than 200 µM and the IC50 amounted to 7.94 µM. The corresponding values for `Cc1ccc2cc(N)c3ccc(C)nc3c2n1.Cc1ccc2cc(N)c3ccc(C)nc3c2n1.O=C1OC(C(O)C[O-])C(O)=C1O.[Cu+]` are greater than 12.6 µM and 0.55 µM. For `CN(C)c1ccc(/C=C(\C#N)c2cccc(Cl)c2)cc1`, in that order: greater than 200 µM and 0.0631 µM. Consider `NC(=O)C(=O)N/N=C/c1ccc([N+](=O)[O-])o1`, for which the EC50 was greater than 200 µM and the IC50 turned out to be 8.32 µM. For `COc1cc(COC(=O)N2CCC2C(=O)O)c([N+](=O)[O-])cc1OC` (configuration not stated), in that order: greater than 741 µM and greater than 741 µM.

With `O=C(Cc1ccccc1)NN1C(=O)C(Cl)C1c1ccccc1` (configuration not stated), the EC50 is greater than 31.6 µM and the IC50 was greater than 31.6 µM.

Take `CCCCCCOC(=O)c1[nH]c(=O)n(CCCCCC)c(=O)c1N`: the EC50 was greater than 200 µM and the IC50 is 151 µM.

Regarding `CN(/N=C/c1ccnc2ccccc12)c1ccc([N+](=O)[O-])cc1[N+](=O)[O-]`, the result was inactive. As for `C(#Cc1ccccc1)SC1=C(c2ccccc2)S/C(=C(\SC#Cc2ccccc2)c2ccccc2)S1`, the EC50 was greater than 200 µM and the IC50 was greater than 200 µM. Take `CCOC(=O)CC1(c2ccccc2)OC(=O)c2ccccc21` (configuration not stated): the outcome was inactive. As to `N#CCCCCn1cnc2c(N)ncnc21`, the EC50 was greater than 200 µM and the IC50 is greater than 200 µM. As to `OC1CC2CCC(C1)S2` (configuration not stated), the EC50 is greater than 200 µM and the IC50 was greater than 200 µM. For `O=S(O)c1cc(Cl)cc(Cl)c1O`, the result was inactive.
